Assay results from ChEMBL document CHEMBL4325859, “Research advances on anticancer activities of matrine and its derivatives: An updated overview” (Eur J Med Chem, 2019).
≈ marks a conversion by molar mass, not a printed value.

How the values were obtained:
A549 = experiment: Antiproliferative activity against human A549 cells at 1 mg/ml relative to control; type: functional
[1] = biological target: ATP-dependent translocase ABCB1 (Homo sapiens, UniProt P08183); experiment: Reversal of P-gp-mediated drug resistance in human MCF7/ADR cells assessed as increase in adriamycin accumulation at 0.2 mg/ml relative to control; type: cell-based
ATP-dependent translocase ABCB1, sequence (P08183 whole entry): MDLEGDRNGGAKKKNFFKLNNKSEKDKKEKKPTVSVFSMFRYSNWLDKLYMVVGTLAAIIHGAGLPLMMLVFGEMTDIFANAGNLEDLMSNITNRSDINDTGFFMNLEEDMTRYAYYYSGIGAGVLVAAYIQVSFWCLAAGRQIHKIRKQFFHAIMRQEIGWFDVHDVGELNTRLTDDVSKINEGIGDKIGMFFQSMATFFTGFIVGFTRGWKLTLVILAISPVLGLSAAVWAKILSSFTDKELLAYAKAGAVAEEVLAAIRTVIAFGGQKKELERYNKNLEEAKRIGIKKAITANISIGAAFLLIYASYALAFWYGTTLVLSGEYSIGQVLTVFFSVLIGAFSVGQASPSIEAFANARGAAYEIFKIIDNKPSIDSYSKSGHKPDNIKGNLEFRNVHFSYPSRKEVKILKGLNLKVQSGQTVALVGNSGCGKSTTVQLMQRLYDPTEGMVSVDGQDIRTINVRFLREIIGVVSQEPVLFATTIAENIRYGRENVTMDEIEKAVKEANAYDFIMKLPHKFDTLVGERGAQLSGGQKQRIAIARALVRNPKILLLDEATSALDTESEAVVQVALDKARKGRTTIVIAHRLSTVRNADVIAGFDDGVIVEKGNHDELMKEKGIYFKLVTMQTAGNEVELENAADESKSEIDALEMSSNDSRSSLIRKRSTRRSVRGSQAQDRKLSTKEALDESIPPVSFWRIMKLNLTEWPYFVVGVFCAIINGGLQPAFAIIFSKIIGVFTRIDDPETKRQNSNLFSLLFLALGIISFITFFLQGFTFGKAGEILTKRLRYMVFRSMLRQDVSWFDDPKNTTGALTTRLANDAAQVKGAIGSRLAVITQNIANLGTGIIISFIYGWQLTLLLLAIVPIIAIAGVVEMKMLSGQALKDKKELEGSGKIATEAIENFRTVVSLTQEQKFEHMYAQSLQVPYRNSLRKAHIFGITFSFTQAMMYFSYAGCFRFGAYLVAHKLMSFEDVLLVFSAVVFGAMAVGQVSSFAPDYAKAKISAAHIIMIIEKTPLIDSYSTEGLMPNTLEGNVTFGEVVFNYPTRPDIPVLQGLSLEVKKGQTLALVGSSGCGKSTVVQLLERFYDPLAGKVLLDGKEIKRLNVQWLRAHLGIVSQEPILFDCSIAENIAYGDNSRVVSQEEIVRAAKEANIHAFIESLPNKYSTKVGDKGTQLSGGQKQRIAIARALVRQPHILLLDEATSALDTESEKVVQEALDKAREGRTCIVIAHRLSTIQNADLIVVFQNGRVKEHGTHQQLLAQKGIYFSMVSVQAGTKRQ

HepG2 [2] = experiment: Antiproliferative activity against human HepG2 cells at 1 mg/ml after 24 hrs by MTT assay relative to control; type: functional
HepG2 [3] = experiment: Antiproliferative activity against human HepG2 cells at 1 mg/ml after 72 hrs by MTT assay relative to control; type: functional
HepG2 [4] = experiment: Antiproliferative activity against human HepG2 cells after 48 hrs by MTT assay; type: functional, cell-based; details: HepG2, 48 h
PANC-1 = experiment: Induction of apoptosis in human PANC1 cells at 0.75 mg/ml by flow cytometry (reference value: 4.13%); type: functional
PC-3 [5] = experiment: Induction of apoptosis in human PC3 cells assessed as late apoptotic cells at 50 mg/mL (reference value: 2.5%); type: functional
PC-3 [6] = experiment: Induction of apoptosis in human PC3 cells assessed as late apoptotic cells at 75 mg/mL (reference value: 2.5%); type: functional
HL-60 [7] = experiment: Antiproliferative activity against human HL60 cells after 24 hrs by MTT assay; type: functional, cell-based; details: HL-60, 24 h
HL-60 [8] = experiment: Induction of apoptosis in human HL60 cells after 24 hrs by Annexin V-FITC/propidium iodide staining based flow cytometry relative to control; type: functional
RPMI-8226 [9] = experiment: Induction of apoptosis in human RPMI8226 cells at 1000 mg/L after 48 hrs by Annexin V/propidium iodide staining based flow cytometry (reference value: 3.02 +/- 1.19%); type: functional
RPMI-8226 [10] = experiment: Growth inhibition of human RPMI8226 cells after 24 hrs; type: functional, cell-based; details: RPMI-8226, 24 h
RPMI-8226 [11] = experiment: Antiproliferative activity against human RPMI8226 cells after 24 hrs by MTT assay; type: functional, cell-based; details: RPMI-8226, 24 h
RPMI-8226 [12] = experiment: Antiproliferative activity against human RPMI8226 cells after 48 hrs by MTT assay; type: functional, cell-based; details: RPMI-8226, 48 h
U-266 = experiment: Antiproliferative activity against human U266 cells after 48 hrs by MTT assay; type: functional, cell-based; details: U-266, 48 h
RD = experiment: Induction of apoptosis in human RD cells at 0.5 mg/ml after 24 hrs by Annexin V-FITC/propidium iodide staining based flow cytometry relative to control; type: functional
EJ = experiment: Antiproliferative activity against human EJ cells after 48 hrs by CCK8 assay; type: functional, cell-based
LoVo = experiment: Antiproliferative activity against human LoVo cells after 72 hrs by MTT assay; type: functional, cell-based
HT-29 [13] = experiment: Growth inhibition of human HT-29 cells at 2 ml/L after 36 hrs by MTT assay relative to control; type: functional
HT-29 [14] = experiment: Growth inhibition of human HT-29 cells at 4 ml/L after 36 hrs by MTT assay relative to control; type: functional
HT-29 [15] = experiment: Growth inhibition of human HT-29 cells at 8 ml/L after 48 hrs by MTT assay relative to control; type: functional
HT-29 [16] = experiment: Growth inhibition of human HT-29 cells at 0.25 mg/ml by MTT assay relative to control; type: functional; details: read-out: GI
HT-29 [17] = experiment: Growth inhibition of human HT-29 cells at 2 mg/ml by MTT assay relative to control; type: functional; details: read-out: GI
HT-29 [18] = experiment: Synergistic growth inhibition of human HT-29 cells at 0.5 mg/ml cotreated with 2.5 ug/ml irinotecan by MTT assay relative to control; type: functional
MG-63 = experiment: Growth inhibition of human MG63 cells at 0.8 mg/ml after 48 hrs by MTT assay relative to control; type: functional; details: MG-63, 48 h, read-out: GI
SAOS-2 = experiment: Growth inhibition of human Saos2 cells after 48 hrs by MTT assay; type: functional, cell-based; details: SAOS-2, 48 h
HOS-TE85 = experiment: Growth inhibition of human MNNG-HOS cells after 48 hrs by MTT assay; type: functional, cell-based; details: HOS-TE85, 48 h
U2OS = experiment: Growth inhibition of human U2OS cells at 0.8 mg/ml after 48 hrs by MTT assay relative to control; type: functional; details: read-out: GI
SW480 = experiment: Antitumor activity against human SW480 cells xenografted in Balb/c mouse assessed as tumor growth inhibition at 30 mg/kg, ip everyday relative to control; type: functional; details: read-out: TGI
UMR108 [19] = experiment: Growth inhibition of rat UMR108 cells assessed as cell proliferation at 0.5 mg/ml after 24 hrs by MTT assay (reference value: 0.405 +/- 0.007%); type: functional; details: UMR108, 24 h, read-out: Activity
UMR108 [20] = experiment: Growth inhibition of rat UMR108 cells assessed as cell proliferation at 1 mg/ml after 24 hrs by MTT assay (reference value: 0.405 +/- 0.007%); type: functional; details: UMR108, 24 h, read-out: Activity
UMR108 [21] = experiment: Growth inhibition of rat UMR108 cells assessed as cell proliferation at 0.5 mg/ml after 48 hrs by MTT assay (reference value: 0.404 +/- 0.008%); type: functional; details: UMR108, 48 h, read-out: Activity
UMR108 [22] = experiment: Growth inhibition of rat UMR108 cells assessed as cell proliferation at 1 mg/ml after 48 hrs by MTT assay (reference value: 0.404 +/- 0.008%); type: functional; details: UMR108, 48 h, read-out: Activity
UMR108 [23] = experiment: Growth inhibition of rat UMR108 cells assessed as cell proliferation at 0.5 mg/ml after 72 hrs by MTT assay (reference value: 0.403 +/- 0.009%); type: functional; details: UMR108, 72 h, read-out: Activity
[24] = Growth inhibition of human GRC1 cells at 0.5 g/L after 72 hrs by MTT assay relative to control; type: functional; details: read-out: GI
[25] = Growth inhibition of human GRC1 cells at 1 g/L after 96 hrs by MTT assay relative to control; type: functional; details: read-out: GI
[26] = Growth inhibition of human GRC1 cells at 1.5 g/L after 96 hrs by MTT assay relative to control; type: functional; details: read-out: GI
D341 cell line [27] = experiment: Growth inhibition of human D341 cells at 1.5 mg/ml after 72 hrs by CCK8 assay relative to control; type: functional; details: D341, 72 h, read-out: GI
D341 cell line [28] = experiment: Growth inhibition of human D341 cells at 2 mg/ml after 72 hrs by CCK8 assay relative to control; type: functional; details: D341, 72 h, read-out: GI
HT-29 [29] = experiment: Growth inhibition of human HT-29 cells at 32 mg/ml after 48 hrs by MTT assay relative to control; type: functional; details: HT-29, 48 h, read-out: GI
M21 = experiment: Growth inhibition of human M21 cells assessed as cell viability at 5 mg/ml after 48 hrs by MTT assay (reference value: 98%); type: functional; details: M21, 48 h, read-out: Activity
HeLa = experiment: Induction of apoptosis in human HeLa cells at 50 ug/ml after 48 hrs by Annexin V-FITC/propidium iodide staining based flow cytometry relative to control; type: functional
C-33-A = experiment: Induction of apoptosis in human C33A cells at 100 ug/ml after 48 hrs by Annexin V-FITC/propidium iodide staining based flow cytometry relative to control; type: functional
HepG2 [30] = experiment: Antiproliferative activity against human HepG2 cells by MTT assay; type: functional, cell-based

O=C1CCC[C@@H]2[C@H]3CCCN4CCC[C@@H](CN12)[C@@H]34 [MATRINE]
Activity (A549): 52.68%
fold change (FC) [1]: 3.56
Activity (HepG2 [2]): 6.28%
Activity (HepG2 [3]): 18.25%
IC50 (HepG2 [4]): 3.22 mM
Activity (PANC-1): 24.56%
Activity (PC-3 [5]): 21%
Activity (PC-3 [6]): 15.1%
IC50 (HL-60 [7]): 0.00366 mM
Activity (HL-60 [8]): 41.1%
Activity (RPMI-8226 [9]): 18.48%
IC50 (RPMI-8226 [10]): 4.35 mM
IC50 (RPMI-8226 [11]): 2250 µg/mL (≈ 9.06 mM)
IC50 (RPMI-8226 [12]): 1640 µg/mL (≈ 6.6 mM)
IC50 (U-266): 1580 µg/mL (≈ 6.36 mM)
Activity (RD): 22.8%
IC50 (EJ): 5.09 mM
IC50 (LoVo): 1.66 mM
growth inhibition (GI) (HT-29 [13]): 22.06%
growth inhibition (GI) (HT-29 [14]): 42.48%
growth inhibition (GI) (HT-29 [15]): 68.29%
inhibition of growth at 250 µg/mL (HT-29 [16]): 12.2%
inhibition of growth at 2000 µg/mL (HT-29 [17]): 52.9%
growth inhibition (GI) (HT-29 [18]): 57.25%
inhibition of growth at 800 µg/mL (MG-63): 20%
IC50 (SAOS-2): 4.27 mM
IC50 (HOS-TE85): 3.1 mM
inhibition of growth at 800 µg/mL (U2OS): 10%
inhibition in vivo at 30 mg/kg (SW480): 13.7%
growth at 500 µg/mL (UMR108 [19]): 0.324%
growth at 1000 µg/mL (UMR108 [20]): 0.298%
growth at 500 µg/mL (UMR108 [21]): 0.313%
growth at 1000 µg/mL (UMR108 [22]): 0.249%
growth at 500 µg/mL (UMR108 [23]): 0.228%
inhibition of growth at 500 µg/mL [24]: 21.9%
inhibition of growth at 1000 µg/mL [25]: 45.8%
inhibition of growth at 1500 µg/mL [26]: 60.2%
inhibition of growth at 1500 µg/mL (D341 cell line [27]): 47.5%
inhibition of growth at 2000 µg/mL (D341 cell line [28]): 59.3%
inhibition of growth at 32000 µg/mL (HT-29 [29]): 84.2%
viability at 5000 µg/mL (M21): 20%
Activity (HeLa): 19.53%
Activity (C-33-A): 28.91%
IC50 (HepG2 [30]): 8.07 mM
